Source: patent publication US9248117B2, “Substituted N,N-dihaloamines as antimicrobials” (priority 2010, dated 2016)
Converted amounts (≈) assume the structure as drawn.

Experiments:
E. coli 25922 = experiment: MBC/MFC against E. coli 25922; format: cell-based; details: Escherichia coli
S. aureus 29213 = experiment: MBC/MFC against S. aureus 29213; format: cell-based; details: Staphylococcus aureus
C. albicans 10231 = experiment: MBC/MFC against C. albicans 10231; format: cell-based; details: Candida albicans
L929 cells = experiment: CT50 cytotoxicity in L929 cells; details: pH 7 phosphate

Structure (SMILES)	MBC (E. coli 25922; pH 4 acetate, Table 4)	MBC (E. coli 25922; pH 7 phosphate, Table 4)	MBC (S. aureus 29213; pH 4 acetate, Table 4)	MBC (S. aureus 29213; pH 7 phosphate, Table 4)	MFC (C. albicans 10231; pH 4 acetate, Table 4)	MFC (C. albicans 10231; pH 7 phosphate, Table 4)	CT50 L929 cells (L929 cells; Table 4)	MBC (E. coli 25922; pH 4 acetate, Table 3)	MBC (E. coli 25922; pH 7 phosphate, Table 3)	MBC (S. aureus 29213; pH 4 acetate, Table 3)	MBC (S. aureus 29213; pH 7 phosphate, Table 3)	MFC (C. albicans 10231; pH 4 acetate, Table 3)	MFC (C. albicans 10231; pH 7 phosphate, Table 3)	CT50 L929 cells (L929 cells; Table 3)
COCCOCCN1C(=O)C(C)(C)N(Cl)C1(C)C [Compound 39-112, 1-chloro-3-(2-(2-methoxyethoxy)ethyl)-2,2,5,5-tetramethylimidazolidin-4-one]	4 µg/mL (≈ 14.3 µM)	128 µg/mL (≈ 459 µM)	8 µg/mL (≈ 28.7 µM)	128 µg/mL (≈ 459 µM)	8 µg/mL (≈ 28.7 µM)	1020 µg/mL (≈ 3670 µM)	0.16 mM	–	–	–	–	–	–	–
CO[C@H]1O[C@H](CS(=O)(=O)CCC(C)(C)N(Cl)Cl)[C@@H](O)[C@H](O)[C@H]1O [Compound 38-141, (2S,3S,4S,5R,6S)-2-(((3-(dichloroamino)-3-methylbutyl)sulfonyl)methyl)-6-methoxytetrahydro-2H-pyran-3,4,5-triol]	–	–	–	–	–	–	–	8 µg/mL (≈ 20.2 µM)	512 µg/mL (≈ 1290 µM)	8 µg/mL (≈ 20.2 µM)	256 µg/mL (≈ 646 µM)	16 µg/mL (≈ 40.4 µM)	> 1020 µg/mL	–
CC1(C)C(CO)OC(=O)N1Cl (stereo not drawn) [Compound 39-122, 3-chloro-5-(hydroxymethyl)-4,4-dimethyloxazolidin-2-one]	2 µg/mL (≈ 11.1 µM)	2 µg/mL (≈ 11.1 µM)	4 µg/mL (≈ 22.3 µM)	4 µg/mL (≈ 22.3 µM)	> 512 µg/mL	1020 µg/mL (≈ 5700 µM)	0.14 mM	–	–	–	–	–	–	–
COCCOCCOCCOCCOCCOCCOCCOCCOCCOCCOCCOCCOCCOCCOCCOCCOCCOCCOCCOCCOCCOCCOCCOCCOCCOCCOCCOCCOCCOCCOCCOCCOCCOCCOCCOCCOCCOCCOCCN1C(=O)C(C)(C)N(Cl)C1(C)C [Compound 39-118, 1-chloro-2,2,5,5-tetramethyl-3-(2,5,8,11,14,17,20,23,26,29,32,35,38,41,44, 47,50,53,56,59,62,65,68,71,74,77,80,83,86,89, 92,95,98,101,104,107,110,113,116-nonatriacontaoxaoctadecahectan-118-yl)imidazolidin-4-one]	32 µg/mL (≈ 16.8 µM)	2050 µg/mL (≈ 1070 µM)	8 µg/mL (≈ 4.19 µM)	4100 µg/mL (≈ 2150 µM)	256 µg/mL (≈ 134 µM)	> 2050 µg/mL	11.3 mM	–	–	–	–	–	–	–
CC(C)(C)OCCOCCOCCS(=O)(=O)CCC(C)(C)N(Cl)Cl [Compound 38-91, N,N-dichloro-4-(2-(2-(2-tert-butoxyethoxy)ethoxy)ethylsulfonyl)-2-methylbutan-2-amine]	–	–	–	–	–	–	–	8 µg/mL (≈ 19.6 µM)	> 256 µg/mL	4 µg/mL (≈ 9.79 µM)	128 µg/mL (≈ 313 µM)	16 µg/mL (≈ 39.2 µM)	128 µg/mL (≈ 313 µM)	–
CC(C)(CCS(=O)(=O)C(CO)C(O)CO)N(Cl)Cl (stereo not drawn) [Compound 38-145, 3-(3-(Dichloroamino)-3-methylbutylsulfonyl)butane-1,2,4-triol]	–	–	–	–	–	–	–	2 µg/mL (≈ 6.17 µM)	64 µg/mL (≈ 197 µM)	2 µg/mL (≈ 6.17 µM)	16 µg/mL (≈ 49.3 µM)	64 µg/mL (≈ 197 µM)	1020 µg/mL (≈ 3160 µM)	–
COCCOCCOCCN1C(=O)C(C)(C)N(Cl)C1(C)C [Compound 39-04, 1-Chloro-3-(2-(2-(2-methoxyethoxy)ethoxy)ethyl)-2,2,5,5-tetramethylimidazolidin-4-one]	2 µg/mL (≈ 6.2 µM)	256 µg/mL (≈ 793 µM)	2 µg/mL (≈ 6.2 µM)	256 µg/mL (≈ 793 µM)	16 µg/mL (≈ 49.6 µM)	1020 µg/mL (≈ 3170 µM)	0.14 mM	–	–	–	–	–	–	–
CC1(C)CN(CCO)C(=O)C(C)(C)N1Cl [Compound 39-108, 4-chloro-1-(2-hydroxyethyl)-3,3,5,5-tetramethylpiperazin-2-one]	1 µg/mL (≈ 4.26 µM)	32 µg/mL (≈ 136 µM)	2 µg/mL (≈ 8.52 µM)	128 µg/mL (≈ 545 µM)	8 µg/mL (≈ 34.1 µM)	64 µg/mL (≈ 273 µM)	0.1 mM	–	–	–	–	–	–	–
CC(=O)OCC(O)CS(=O)(=O)CCC(C)(C)N(Cl)Cl (stereo not drawn) [Compound 38-49, 3-(3-(Dichloroamino)-3-methylbutylsulfonyl)-2-hydroxypropyl acetate]	–	–	–	–	–	–	–	2 µg/mL	64 µg/mL	4 µg/mL	32 µg/mL	16 µg/mL	> 512 µg/mL	–
CC(=O)OCC(CS(=O)(=O)CCC(C)(C)N(Cl)Cl)OC(C)=O (stereo not drawn) [Compound 38-51, 3-(3-(Dichloroamino)-3-methylbutylsulfonyl)propane-1,2-diyl diacetate]	–	–	–	–	–	–	–	1 µg/mL	128 µg/mL	2 µg/mL	128 µg/mL	16 µg/mL	128 µg/mL	–
COCCOCCOCC[N+]1(C)CC(C)(C)N(Cl)C(C)(C)C1.[Cl-] [Compound 39-106, 4-chloro-1-(2-(2-(2-methoxyethoxy)ethoxy)ethyl)-1,3,3,5,5-pentamethylpiperazin-1-ium chloride]	16 µg/mL	256 µg/mL	32 µg/mL	> 512 µg/mL	64 µg/mL	> 512 µg/mL	0.24 mM	–	–	–	–	–	–	–
CC(=O)OCCOCCOCCS(=O)(=O)CCC(C)(C)N(Cl)Cl [Compound 38-87, 2-(2-(2-(3-(Dichloroamino)-3-methylbutylsulfonyl)ethoxy)ethoxy)ethyl acetate]	–	–	–	–	–	–	–	4 µg/mL	128 µg/mL	4 µg/mL	128 µg/mL	32 µg/mL	512 µg/mL	–
COCCOCCOCCOCCS(=O)(=O)CCC(C)(C)N(Cl)Cl [Compound 38-147, N,N-dichloro-2-methyl-4-(2-(2-(2-(2-methoxyethoxy)ethoxy)ethoxy)ethylsulfonyl)butan-2-amine]	–	–	–	–	–	–	–	8 µg/mL (≈ 19.5 µM)	256 µg/mL (≈ 624 µM)	8 µg/mL (≈ 19.5 µM)	128 µg/mL (≈ 312 µM)	> 256 µg/mL	2050 µg/mL (≈ 4990 µM)	0.039 mM
CCCCCCOCC[N+](C)(C)CCC(C)(C)N(Cl)Cl.Cc1ccc(S(=O)(=O)[O-])cc1 [Compound 38-135, 3-(dichloroamino)-N-(2-(hexyloxy)ethyl)-N,N,3-trimethylbutan-1-aminium 4-methylbenzenesulfonate]	–	–	–	–	–	–	–	8 µg/mL	256 µg/mL	2 µg/mL	512 µg/mL	32 µg/mL	> 1020 µg/mL	0.08 mM
CC(C)(CCS(=O)(=O)CCOCCOCCS(=O)(=O)O)N(Cl)Cl [Compound 38-81, 2-(2-(2-(3-(dichloroamino)-3-methylbutylsulfonyl)ethoxy)ethoxy) ethanesulfonic acid]	–	–	–	–	–	–	–	2 µg/mL (≈ 4.8 µM)	32 µg/mL (≈ 76.9 µM)	4 µg/mL (≈ 9.61 µM)	256 µg/mL (≈ 615 µM)	128 µg/mL (≈ 307 µM)	> 2050 µg/mL	2.13 mM
CC(C)(CCS(=O)(=O)CCO)N(Cl)Cl [Compound 38-25, 2-(3-(Dichloroamino)-3-methylbutylsulfonyl)ethanol]	–	–	–	–	–	–	–	0.5 µg/mL (≈ 1.89 µM)	8 µg/mL (≈ 30.3 µM)	1 µg/mL (≈ 3.79 µM)	16 µg/mL (≈ 60.6 µM)	16 µg/mL (≈ 60.6 µM)	512 µg/mL (≈ 1940 µM)	–
CCCCOCC[N+](C)(C)CCC(C)(C)N(Cl)Cl.[Cl-] [Compound 38-133, N-(2-butoxyethyl)-3-(dichloroamino)-N,N,3-trimethylbutan-1-aminium chloride]	–	–	–	–	–	–	–	8 µg/mL	128 µg/mL	8 µg/mL	128 µg/mL	64 µg/mL	1020 µg/mL	0.26 mM
COCCOCCOCC[N+](C)(C)CCN1CC(C)(C)N(Cl)C1=O [Compound 39-110, 2-(3-chloro-4,4-dimethyl-2-oxoimidazolidin-1-yl)-N-(2-(2-(2-methoxyethoxy)ethoxy)ethyl)-N,N-dimethylethanaminium 4-methylbenzenesulfonate]	128 µg/mL	1020 µg/mL	128 µg/mL	2050 µg/mL	256 µg/mL	> 2050 µg/mL	3.9 mM	–	–	–	–	–	–	–
COCC[N+](C)(C)CCC(C)(C)N(Cl)Cl.[Cl-] [Compound 38-43, 3-(dichloroamino)-N-(2-methoxyethyl)-N,N,3-trimethylbutan-1-aminium chloride]	–	–	–	–	–	–	–	2 µg/mL	1020 µg/mL	1 µg/mL	512 µg/mL	32 µg/mL	> 2050 µg/mL	1.2 mM
CC(C)(CCS(=O)(=O)CC(O)C(O)CO)N(Cl)Cl (stereo not drawn) [Compound 38-29, 4-(3-(Dichloroamino)-3-methylbutylsulfonyl)butane-1,2,3-triol]	–	–	–	–	–	–	–	2 µg/mL (≈ 6.17 µM)	128 µg/mL (≈ 395 µM)	1 µg/mL (≈ 3.08 µM)	32 µg/mL (≈ 98.7 µM)	256 µg/mL (≈ 790 µM)	> 1020 µg/mL	–
